# Patent US7695426B2, “Methods for enhancing viability” (Biological Resources Pty Ltd, priority 2003, dated 2010)
# Legend:
# bovine sperm = assay: Treatment of bovine sperm with PFT-α before insemination, blastocyst formation; type: cell-based; conditions: bovine sperm incubated 1 h with 0.3-3 μM PFT-α before insemination; Day 7; compared to control
# Procedure: All embryo manipulations were performed at 39° C. except for oocyte harvesting and activation which was performed at room temperature. All procedures were performed in 4-well Nunc dishes in Tissue Culture Medium 199 (TCM-199) supplemented with HEPES (TCM-H TCM-199; Gibco™ BRL/Life Technologies, Melbourne, Victoria, Australia) without mineral oil overlay, unless otherwise indicated.
# Bovine ovaries collected from 2 different local slaughterhouse, transported at 30-35° C. to the laboratory and washed on 39° C. physiologic saline (0.9% NaCl; Baxter Healthcare Pty., Ltd., NSW, Australia). Ovarian antral follicles (2-8 mm) were aspirated using an 18-gauge needle and collected into TCM-H with 30 IU ml^−1 heparin (Pharmacia & Upjohn Pty., Ltd., Perth, Wash., Australia) and 2% gamma radiated fetal bovine serum (FBS; JRH Biosciences Pty., Ltd., Melbourne, Victoria, Australia). Cumulus oocyte complexes (COCs) showing an even cytoplasm and surrounded by at least three layers of compact cumulus cells were collected from the follicular fluid. […]
# Frozen/thawed semen from an elite bull was placed on a Percoll gradient and centrifuged at 600×g for 20 minutes. The top layers were removed and the sperm concentration and motility of the pellet determined. […]
# The proportion of blastocysts were determined on Day 7 (Day 0=fertilization). […]
# mouse embryos [1] = assay: Co-treatment of embryos in vitro with PAF and PFT-α; type: cell-based; conditions: zygotes cultured 96 h; 10 nM PAF, 10 μM PFT-α or both
# mouse embryos [2] = assay: Combined treatment of IGF-II and PFT-α on embryo development in vitro; type: cell-based; conditions: IVF zygotes cultured 96 h, 10 ng/ml IGF-II, 1 μM PFT-α, or both; for Cells/blastocyst: control 23 ± 4; for % blastocyst: control 31
# Procedure: The IGF-II used was human recombinant insulin-like growth factor-II (expressed in E. Coli) (Sigma Chemical Co.), reconstituted with a minimal volume of 0.1M acetic acid and immediately diluted with modified-HTF to a concentration of 50 μg/ml. Aliquots were frozen at −70° C. Upon thawing, aliquots were serially diluted with modified-HTF.
# Zygotes produced by IVF from F1 crosses were prepared and cultured as described above, with 1 embryo per […] drop of media. Zygotes were cultured for 96 h in modified HTFM medium individually in 10 μl drops. The proportion of embryos developing to morphologically normal blastocysts, the number of cells in each blastocyst and the number of apoptotic cells per blastocyst were assessed in media containing 10 ng/ml IGF-II, 1 μM PFT-α, or IGF-II+PFT-α.
# sperm and oocytes = assay: Treatment of mouse gametes with PFT-α during capacitation and fertilisation in vitro; type: cell-based
# Procedure: (§1) Mouse IVF: Females superovulated by 5 IU pregnant mare serum gonadotrophin followed 48 h later by 5 IU human chorionic gonadotrophin. Oocytes were collected 13-15 h after hCG and washed. Epididymal sperm collected from the epididymides of male mice (14-35 weeks old) of proven fertility is immediately placed into 1 ml of medium. Sperm were allowed to disperse for 10 min at 37° C. and were then added to the oocytes at 0.1×10^6/ml. Fertilisation was performed in a final volume of 1 ml of medium. Oocytes and sperm were cultured together for 5 h at 37° C. in 5% CO2 in air. The oocytes were then retrieved, washed in Hepes-buffered HTF and their fertilisation status assessed by microscopic detection of pronuclei and polar bodies. Fertilised oocytes were transferred to drops of modified HTF medium under mineral oil and their development status assessed each 24 h.
# PFT-α preparation, IVF and embryo culture was as previously described. The study used F1 (C57Bl6j×CBAj) males and females. PFT-α was added to sperm during its capacitation and during the process of fertilisation in vitro.
# 4-5 h after the addition of sperm to oocytes, the oocytes were washed free of sperm and PFT-α. They were examined for the presence of 2 pronuclei as evidence of successful fertilisation. Successfully fertilised oocytes were placed in culture in 10 μL of modified HTF media, 1 zygote per 10 μL drop. They were culture for 120 h and the proportion forming morphologically normal blastocysts were recorded. The blastocysts were fixed in 2% formaldehyde and stained with 5 μG Hoechst stain/ml. […]
# The effect of dose of PFT-A on the proportion of oocytes fertilised, the proportion of zygotes that developed to morphological blastocyst and the number of cells in each blastocysts were recorded and are shown in FIGS. 4A, B and C respectively. The effect of PFT-A dose was assessed using the SPSS statistical package. The fertilisation rate and development rate were assessed using binary logistic regression analysis while cell numbers were assessed by univariate analysis using the general linear model.
# mouse embryos [3] = assay: Culture of mouse zygotes (IVF or ISF) with PFT-α as media supplement; type: cell-based
# Procedure: as §1
# A recently developed selective inhibitor of p53, pifithrin-α (PFTα [2-(2-imino-4,5,6,7-tetrahydrobenzothiazol-3-yl)-1-p-tolylethanone], Sigma-Aldrich), is a small molecule that reversibly blocks p53-dependent transcriptional activation and apoptosis (Komarov et al., 1999, Science 285, 1733-1737). PFT-α was prepared initially by solubilising to a concentration of 10 mM in dimethylsolfoxide and diluted to working concentrations.
# Zygotes were produced by either fertilization in vitro (IVF) or fertilisation in situ (ISF) and cultured for 96 hours in modified HTFM medium individually in […] drops. PFT-α was added as a media supplement over the dose range […]. The proportion of embryos developing to the blastocyst stage (FIG. 3A), the number of cells per normal blastocyst and the proportion of cells undergoing apoptosis (FIG. 3B), were assessed.
# p53 mRNA = assay: RT-PCR of p53 mRNA in embryos incubated in α-amanitin; type: cell-based, mouse
# Source text: RT-PCR was used to compare the expression of p53 mRNA in fresh p53+/+ mouse embryos (embryos fertilised and grown in the reproductive tract) and IVF mouse embryos. For IVF embryos, the model uses a graded range of stress induced by IVF and culture under conditions of increasing growth factor deprivation. Primers were designed (5′-GGAGTCTTCCAGTGTGATGAT, 3′-GGG ACA GCC MG TCT GTT ATG) that successfully produced an RT-PCR product of the correct size (429 bp) and sequence (SUPAMAC) for the p53 gene. Groups of 5 embryos, oocytes or sperm were pooled. mRNA was extracted and RT-PCR performed.
# p53 product was detected in oocytes, zygotes, 8-cell, morulae and blastocyst stage mouse embryos collected from the reproductive tract but not in epididymal sperm. In 2-cell embryos detection was variable. […] Quantitative RT-PCR of p53 was performed to compare expression of p53 mRNA in fresh and IVF embryos. Equivalent levels of RNA were found in the oocyte, zygote, morulae and blastocyst of fresh embryos; the levels were 50-70% lower in late 2-cell embryos than in other development stages (data not shown).
# 2-cell embryos = assay: Intracellular calcium response of embryos to exogenous PAF; type: cell-based, mouse; conditions: IVF embryos in comparison to fresh and ISF embryos
# Procedure: Mammalian embryos express a receptor for PAF, and activation of this receptor elicits a transient increase in the embryo's intracellular calcium concentration (Emerson et al., 2000, Journal of Biological Chemistry 275, 21905-21913; Lu et al., 2003, Biology of Reproduction 69, 106-116).
# Mouse embryos were incubated with exogenous PAF and the intracellular Ca^2+ concentration was determined as described by Emerson et al. (2000). Embryos tested were: (i) those fertilized in the reproductive tract and collected fresh from the reproductive tract (fresh); (ii) embryos produced by IVF and cultured in vitro (IVF); and (iii) embryos fertilized in the reproductive tract and cultured in vitro (ISF). […] This reduced signaling correlated with poor development of the embryos in vitro.
# [4] = gametes treated with PFT-α, zygotes cultured 120 h, P<0.05
compound,measurement,setting,value
"Cc1ccc(C(=O)Cn2c3c(sc2=N)CCCC3)cc1 [PFT-α, 2-(2-imino-4,5,6,7-tetrahydrobenzothiazol-3-yl)-1-p-tolylethanone]",proportion of resulting embryos that developed to morphological blastocysts,bovine sperm,significant positive effect
same,embryo viability as proportion of embryos that developed to the blastocyst stage,mouse embryos [1],increase in embryo viability
same,Cells/blastocyst,mouse embryos [2],32 ± 4
same,% blastocyst,mouse embryos [2],44%
same,fertilisation rate (proportion of oocytes fertilised),"sperm and oocytes; PFT-α present during sperm capacitation and IVF, P<0.01",dose-dependent increase
same,mean number of cells present in each embryo (blastocyst),sperm and oocytes; [4],dose-dependent significant increase
same,proportion of zygotes that developed to the blastocyst stage,sperm and oocytes; [4],further dose-dependent increase
same,proportion of IVF embryos that developed to the blastocyst stage,"mouse embryos [3]; IVF zygotes cultured 96 h individually, PFT-α dose range 0.1-20 μM",significant quadratic effect
same,embryo survival,mouse embryos [3]; between 0.1 and 20 μM added to embryos in culture,significant effect on increasing embryo survival
same,number of cells per normal blastocyst,"mouse embryos [3]; both ISF and IVF zygotes, cultured 96 h, PFT-α dose range 0.1-20 μM",significant improvement
same,number of cells undergoing apoptosis,"mouse embryos [3]; both ISF and IVF zygotes, cultured 96 h, PFT-α dose range 0.1-20 M (so in the source)",significant decrease
CC[C@H](C)[C@@H]1NC(=O)CNC(=O)[C@@H]2Cc3c([nH]c4cc(O)ccc34)[S+]([O-])C[C@@H](NC(=O)CNC1=O)C(=O)N[C@@H](CC(N)=O)C(=O)N1C[C@H](O)C[C@H]1C(=O)N[C@@H]([C@@H](C)[C@@H](O)CO)C(=O)N2 (stereo in doubt) [α-amanitin],p53 mRNA in embryos after incubation from the 2-cell stage,"p53 mRNA; 2-cell embryos incubated in α-amanitin, after 24 h",p53 mRNA negative
same,qualitative expression of p53 RNA in zygotes,p53 mRNA; zygotes incubated in α-amanitin,no effect
1 hexadecyl/octadecyl-2-acetyl-sn-glyceryl-3-phosphocholine [PAF],embryo viability as proportion of embryos that developed to the blastocyst stage,mouse embryos [1],increase in embryo viability
same,proportion of 2-cell IVF embryos that responded to exogenous PAF (intracellular calcium),2-cell embryos,substantially reduced
"IGF-II: human recombinant insulin-like growth factor-II (expressed in E. Coli), Sigma Chemical Co.",Cells/blastocyst,mouse embryos [2],29 ± 2
same,% blastocyst,mouse embryos [2],42%
